{"source": "patent US20240165069A1", "about": "“METHODS FOR TREATING DYSGEUSIA AND OTHER LINGERING SYMPTOMS ASSOCIATED WITH SEVERE ACUTE RESPIRATORY SYNDROME CORONAVIRUS 2 INFECTIONADN CORONAVIRUS DISEASE 2019” (Nocendra, Inc., priority 2021, published 2024)", "origin": "cited, not measured here", "test_system": "oral inflammation", "settings": "Phase 1 trial"}
{"smiles": "CCCCC[C@@H](O)/C=C/c1ccccc1/C=C/[C@@H](O)[C@@H](O)CCCC(=O)O", "note": "[BLXA4, 9,12-benzo-lipoxin A4]", "values": [{"measurement": "safety profile", "setting": "50 subjects receiving drug, oral topical mouth rinse, versus placebo mouth rinse", "value": "indistinguishable from placebo mouth rinse in safety profile"}, {"measurement": "efficacy (reversal of inflammation)", "setting": "oral topical mouth rinse, not powered for efficacy, trends only", "value": "trends in the efficacy data suggested reversal of inflammation"}, {"measurement": "pro-resolving lipid mediator shift in serum", "setting": "topical BLXA4, serum of the subjects", "value": "elicited a pro-resolving lipid mediator shift in the serum"}]}
